According to ChEMBL document CHEMBL1132338, “Molecular recognition in nicotinic acetylcholine receptors: the importance of pi-cation interactions” (J Med Chem, 1999):

Assays:
[1] = biological target: Neuronal acetylcholine receptor; alpha4/beta2 (Homo sapiens, UniProt P17787+P43681); assay: Binding affinity at heteropentameric Nicotinic acetylcholine receptor alpha4-beta2 subtype using […] as radioligand; type: protein-complex assay
[2] = biological target: Neuronal acetylcholine receptor subunit alpha-7 (Homo sapiens, UniProt P36544); assay: Binding affinity at homopentameric Nicotinic acetylcholine receptor alpha-7 subtype using [3H]-alpha-bungarotoxin as radioligand
Chain of Neuronal acetylcholine receptor subunit alpha-7 (P36544 whole entry): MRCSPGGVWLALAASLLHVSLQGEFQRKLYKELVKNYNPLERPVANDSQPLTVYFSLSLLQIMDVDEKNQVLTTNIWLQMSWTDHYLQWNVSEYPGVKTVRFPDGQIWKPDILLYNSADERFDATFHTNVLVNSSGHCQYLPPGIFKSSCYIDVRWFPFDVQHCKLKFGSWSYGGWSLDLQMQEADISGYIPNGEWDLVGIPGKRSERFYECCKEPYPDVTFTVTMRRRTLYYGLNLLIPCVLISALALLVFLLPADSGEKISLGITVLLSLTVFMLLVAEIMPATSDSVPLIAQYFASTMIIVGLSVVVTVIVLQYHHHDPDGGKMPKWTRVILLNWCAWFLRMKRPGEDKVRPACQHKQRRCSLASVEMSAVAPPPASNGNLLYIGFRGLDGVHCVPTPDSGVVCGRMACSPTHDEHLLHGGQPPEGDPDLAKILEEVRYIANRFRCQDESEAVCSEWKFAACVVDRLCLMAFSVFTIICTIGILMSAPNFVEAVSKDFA

Chain of Neuronal acetylcholine receptor; alpha4/beta2 (P17787 whole entry): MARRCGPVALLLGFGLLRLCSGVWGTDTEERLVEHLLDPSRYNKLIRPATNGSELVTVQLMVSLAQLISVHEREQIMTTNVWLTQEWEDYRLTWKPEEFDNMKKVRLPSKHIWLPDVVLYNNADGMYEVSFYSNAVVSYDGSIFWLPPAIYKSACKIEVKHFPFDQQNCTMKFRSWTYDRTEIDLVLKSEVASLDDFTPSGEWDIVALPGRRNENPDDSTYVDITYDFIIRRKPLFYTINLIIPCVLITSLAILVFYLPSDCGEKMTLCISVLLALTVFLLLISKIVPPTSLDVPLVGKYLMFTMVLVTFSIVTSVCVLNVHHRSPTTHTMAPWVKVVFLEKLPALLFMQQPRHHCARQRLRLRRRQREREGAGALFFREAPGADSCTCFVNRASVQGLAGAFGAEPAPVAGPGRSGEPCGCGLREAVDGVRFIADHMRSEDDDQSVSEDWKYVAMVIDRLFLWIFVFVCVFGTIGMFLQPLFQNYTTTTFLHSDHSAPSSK
Chain of Neuronal acetylcholine receptor; alpha4/beta2 (P43681 whole entry): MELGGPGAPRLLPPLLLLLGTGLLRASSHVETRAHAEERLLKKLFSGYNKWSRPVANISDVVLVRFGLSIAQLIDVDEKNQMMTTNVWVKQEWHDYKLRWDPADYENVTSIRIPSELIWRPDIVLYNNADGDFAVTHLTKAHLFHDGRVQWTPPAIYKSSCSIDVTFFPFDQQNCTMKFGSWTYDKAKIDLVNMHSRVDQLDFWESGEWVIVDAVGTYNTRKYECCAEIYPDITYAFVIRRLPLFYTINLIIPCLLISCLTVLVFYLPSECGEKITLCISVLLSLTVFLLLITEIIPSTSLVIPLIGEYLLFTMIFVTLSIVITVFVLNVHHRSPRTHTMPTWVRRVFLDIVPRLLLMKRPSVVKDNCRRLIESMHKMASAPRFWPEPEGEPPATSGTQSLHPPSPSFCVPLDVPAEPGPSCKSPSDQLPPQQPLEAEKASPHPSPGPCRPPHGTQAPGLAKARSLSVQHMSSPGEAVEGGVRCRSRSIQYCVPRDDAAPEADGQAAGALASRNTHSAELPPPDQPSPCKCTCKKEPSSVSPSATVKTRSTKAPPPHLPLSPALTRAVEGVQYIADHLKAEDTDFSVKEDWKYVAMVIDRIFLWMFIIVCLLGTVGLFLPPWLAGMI

| SMILES | Ki [1] [nM] | Ki [2] [nM] |
| --- | --- | --- |
| c1cncc(C2CCN2)c1 (stereo not given) | 1.1 | – |
| C[N+](C)(C)C [TETRAMETHYLAMMONIUM ION] | 24 | 2300 |
| CN1CCCCC1c1cccnc1 (stereo not given) | 450 | 9700 |
| c1cncc(C2CCCCN2)c1 (stereo not drawn) [DL-ANABASINE] | 92 | 450 |
| c1cncc([C@@H]2CCCN2)c1 [NORNICOTINE] | – | 730 |
| CN1C2CCC1C(c1ccc(Cl)nc1)C2 (stereo not given) | 0.26 | – |
| Clc1ccc(C2CC3CCC2N3)cn1 (stereo not given) [EPIBATIDINE] | – | 25 |
